Consider two substances from paper PMC6662706, “Short amylin receptor antagonist peptides improve memory deficits in Alzheimer’s disease mouse model” (Scientific Reports, 2019).

No end group written: not given here.

One experiment concerns 5XFAD mice. Nature of the experiment: Morris Water Maze and probe test, 5XFAD and wild-type mice. In kind it is in vivo, mouse. Particulars: for memory task in age-matched wild-type control mice: systemic administration, ip three times a week for 5 weeks. Here is the method:
The determination of injection amount of R5 (200 µg/kg) was based on achieving equimolar concentrations as the full length peptide, cAC253[21] and prior studies that used pramlintide injections[22],[23]. The normal mouse circulated endogenous amylin level is 0.7 ± 0.4 pmol/L in plasma[32] and based upon our in vitro data (Fig. 1E) unlikely to perturb the function of peptides in vivo at these concentrations.
For in vivo studies, 5XFAD mouse breeding stocks were obtained from the Jackson Laboratory (JAX #006554). Intraperitoneal injection (ip) administration of fragment R5 and cAC253 was carried out in 5XFAD mice and wild-type littermate control mice (both male and female). These mice were equally and randomly distributed into 6 groups (n = 10 for each group), and received either normal saline (NS), cAC253 or R5 fragment (200 µg/kg) i.p. injections 3 times a week starting at 6 months of age for 5 weeks.
The Morris Water Maze (MWM) and probe test were carried out for behavioral testing. The mice were trained for 3 days (4 trials per day) to find a submerged platform (target quadrant, TQ). The trial ended when a mouse found and climbed onto the platform within 120s. Mice were tested with inter-trial interval of 50 min. Memory was evaluated in probe trial, administered on day 4 as the first trial of the day. During probe trial, the platform was removed from the pool. Memory for the platform location was expressed as the percent of time spent in TQ.
For in vivo experiments, intraperitoneal injection (ip) administration of fragment R5 and cAC253 was carried out in 6 month old transgenic 5XFAD mice and wild-type littermate control mice (both male and female) obtained from Dr. David Westaway (University of Alberta). These mice were equally and randomly distributed into 6 groups and 10 mice assigned for each group, Tg-NS, Tg-cAC253, Tg-R5, Wt-NS, Wt-cAC253, Wt-R5. Randomized double blind control experiment was carried out for the whole in vivo experiment, i.e. the individual administering ip injections was blinded to the identity of the drug, and the individual testing behavior was blind to the treatment being administered. […]
The MWM apparatus consisted of 2-m circular blue plastic pool filled with water (24–25°C), which was rendered opaque by the addition of non-toxic white paint. […] The behavior of a mouse was recorded by a video camera connected to a video tracking system (HVS Image 2100, HVS Image, Buckingham, UK).
The pool was surrounded by a white curtain, and a mouse was released facing the wall at points (N, E, S, W) which were chosen semi-randomly. […] Memory was evaluated in probe trial, administered on day 4 as the first trial of the day. […] Memory for the platform location was expressed as the percent of time spent in TQ.

For experiment [1], the system named is ERK1/2 signaling pathway downstream of AMY3 receptor. As to the kind of experiment: hAmylin-evoked phosphoERK1/2 in HEK-AMY3 cells. The experiment is classed as cell-based. Particulars: peptides 10 μM, hAmylin 1 μM, n = 3. An excerpt: Human amylin is a potent agonist at amylin receptor stimulating cAMP production in cells. In the first in vitro bioassay, we examined ability of R5 and R14 to block the hAmylin-evoked cAMP generation in HEK-AMY3 cells. R11 peptide served as a negative control. […] In a second in vitro assay, we examined whether peptides R5, and R14 could protect human fetal neurons (HFNs) and N2a (mouse neuroblastoma cell line) from Αβ1–42 induced cytotoxicity.
A shorter peptide library was derived from AC253 peptide sequence comprising 12–14 amino acid peptides. […] To determine the activity of these shorter peptides to block AMY3 receptor signaling, cellular cAMP levels (measured using a parameter cyclic AMP assay kit, R&D Systems) and phosphorylation ERK1/2 (Western blot) were measured. We assessed neuroprotective properties of the peptide fragments against Aβ cytotoxicity in vitro using the MTT assay in N2a cell line and human fetal neurons (HFNs), which were prepared from 12- to 15-gestational week fetuses with approval of the Human Ethics Research Board at the University of Alberta as previously reported[17],[19].
Intracellular signaling profiles were determined using in-cell Western blot techniques as previously described ^8. […]

Regarding “LGRLSQELHRLQTYPRTNTGSNTY-NH2 (C-terminus assumed) [AC253, reference compound]”, the “memory task in age-matched wild-type control mice” value with 5XFAD mice is given as “no alterations in the memory task”. Besides, the “effect on increases in phosphoERK1/2 evoked by hAmylin” value in experiment [1] is recorded as “reduce increases in phosphoERK1/2”.
For SQELHRLQTYPR-NH2 [R5], in the experiment with 5XFAD mice (200 µg/kg ip three times a week for 5 weeks from 6 months of age, n = 9 mice per group), the “Morris Water Maze escape latencies, 5XFAD mice versus normal saline” value was “marked improvement in escape latencies”. The “Probe trial, quadrant preference, 5XFAD mice” value in the experiment on 5XFAD mice (200 µg/kg ip three times a week for 5 weeks, n = 9) is on record as “preference for the target quadrant”. The “memory task in age-matched wild-type control mice” value in the experiment with 5XFAD mice is “no alterations in the memory task”. Besides, the “effect on increases in phosphoERK1/2 evoked by hAmylin” value in experiment [1] is “reduce increases in phosphoERK1/2”.
